In patent US9115147B2, “Tricyclic derivatives and their pharmaceutical use and compositions” (Cephalon, Inc., priority 2009, dated 2015) one finds Ki data, which are given here for 28 compounds.

The test addresses T1, human 5-HT6 receptor (Homo sapiens, UniProt P50406).
T1 construct: host or cells: CHO-K1 cells, stably transfected; membranes prepared in house
As to the kind of experiment: Human 5-HT6 Receptor Binding Assay ([3H]LSD, scintillation beads). As for the experimental part: Human 5-HT6 Receptor Binding Assay
Membranes were prepared from CHO-K1 cells stably transfected with the human 5-HT6 receptor (Euroscreen; ES-316-C). The cells were grown in Gibco Advanced DMEM-F12 (Cat#12634010) containing 2% dialyzed FBS (Hyclone Cat#SH30079.03). The cells were harvested in phosphate buffered saline (PBS) containing 0.1 mM EDTA and pelleted by centrifugation (1000×g), the supernatant was discarded and the pellets were stored at −80° C. prior to membrane preparation. Membranes were prepared as previously described (J Bio Chem. 1992, 267 (14) 9844-51). Briefly, frozen cell pellet was resuspended in a lysis buffer containing 5 mM Tris-HCl (pH 7.5), 5 mM EDTA and 1 complete EDTA-free protease inhibitor tablet (Roche Applied Science, Indianapolis, Ind.) per 50 mL buffer, and homogenized with a tissue homogenizer. The cell lysate was then centrifuged at 40,000×g for 30 min at 4° C. to collect the membranes. The membrane pellets were washed in membrane buffer (50 mM Tris-HCl (pH 7.5), 0.6 mM EDTA, 5 mM MgCl2, 1 complete EDTA-free protease inhibitor tablet per 50 mL buffer) using a tissue homogenizer. The membranes were centrifuged at 40,000×g for 30 min at 4° C. and the pellets were resuspended in membrane buffer containing 250 mM sucrose, and protein concentration was determined using the Coomassie Plus kit (Pierce Biotechnology, Rockford, Ill.).
Membranes prepared from cells expressing recombinant human 5-HT6 receptor (h5-HT6) were resuspended in assay buffer containing 50 mM Tris HCl, (pH7.4), 4 mM CaCl2, 10 μg/mL saponin, and 0.1% (w/v) ascorbic acid. Membranes were preincubated using 1.75 μg membrane protein and 0.25 mg FlashBlue scintillation beads (PerkinElmer catalogue #FB001) per well at 4° C. for 30 min. […] Test compounds or assay controls for total and non-specific binding were diluted in DMSO as 100× solutions and serially diluted by half log concentrations on a Perkin Elmer JANUS Automated Workstation. Serotonin (10 μM final concentration) was used to determine non-specific binding in the assay. Plates were read using the Microbeta Trilux 1450 LSC and luminescence counter. Data were analyzed by nonlinear […] using the dose-response equation (variable slope) to calculate IC50 in XLfit4 (ID Business Solutions Inc.): y=(Bottom+((Top−Bottom)/(1+((IC50/x)^Hill slope))))
Ki value was then calculated according to the Cheng-Prusoff method using the equation below (Cheng and Prusoff, 1973): Ki, app=IC50/(1+([radioligand]/Kd))

The mark [1] stands for this setting: Human 5-HT6 Ki app (nM), membranes of CHO-K1 cells with recombinant human 5-HT6 receptor, 4 nM [3H]LSD, Cheng-Prusoff.
The mark [2] stands for this setting: read-out: Human 5-HT6 Ki app; membranes of CHO-K1 cells with recombinant human 5-HT6 receptor, 4 nM [3H]LSD, Cheng-Prusoff.
Where [3] appears, read: membranes of CHO-K1 cells with recombinant human 5-HT6 receptor, 4 nM [3H]LSD, Cheng-Prusoff; read-out: Human 5-HT6 Ki app.

pKi: −log10 of the molar value. Where two headings read alike, the source gives them in different places. Where only a bound is given, the exact number is not on record here.

T1 sequence (P50406 whole entry): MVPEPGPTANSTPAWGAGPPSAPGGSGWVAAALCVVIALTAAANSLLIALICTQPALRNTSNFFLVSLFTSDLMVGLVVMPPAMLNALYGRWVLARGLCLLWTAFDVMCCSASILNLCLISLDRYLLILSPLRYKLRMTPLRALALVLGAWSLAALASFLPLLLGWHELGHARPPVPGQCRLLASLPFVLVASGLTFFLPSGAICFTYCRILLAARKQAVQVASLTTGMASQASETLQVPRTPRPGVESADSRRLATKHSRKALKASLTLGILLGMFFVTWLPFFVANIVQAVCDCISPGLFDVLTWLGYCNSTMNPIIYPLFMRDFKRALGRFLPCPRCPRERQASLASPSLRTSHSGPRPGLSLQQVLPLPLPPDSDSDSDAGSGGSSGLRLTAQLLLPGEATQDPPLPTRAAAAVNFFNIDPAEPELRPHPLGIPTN

As to `Cc1cccc([S+]([O-])c2ccc3c(c2)OCC2NCCC32)n1` (single isomer, unassigned) [Example 22, 7-[(6-methylpyridin-2-yl)sulfinyl]-1,2,3,3a,4,9b-hexahydrochromeno[3,4-b]pyrrole], the Ki (Human 5-HT6 Ki (nM), actual data; membranes of CHO-K1 cells with recombinant human 5-HT6 receptor, 4 nM [3H]LSD) is 51.5 nM and the Ki under setting [1] was less than 500 nM.

For the compound `Cc1cccc(S(=O)(=O)c2ccc3c(c2)OCC2NCCC32)n1` (single isomer, unassigned) [Example 23, 7-[(6-methylpyridin-2-yl)sulfonyl]-1,2,3,3a,4,9b-hexahydrochromeno[3,4-b]pyrrole], under setting [1], the Ki was less than 500 nM. One may read the pKi as the Ki on a negative log10 scale, so that one unit is a factor of ten. For `Cc1cccc(S(=O)(=O)c2ccc3c(c2)OCC2NCCC32)n1` (single isomer, unassigned) [Example 24, 7-[(6-methylpyridin-2-yl)sulfonyl]-1,2,3,3a,4,9b-hexahydrochromeno[3,4-b]pyrrole], under setting [2], the pKi is greater than 6.30. With `CC(C)Oc1cc(F)cc(S(=O)(=O)c2ccc3c(c2)OCC2NCCC32)c1` (single isomer, unassigned) [Example 27, 7-{[3-fluoro-5-(propan-2-yloxy)phenyl]sulfonyl}-1,2,3,3a,4,9b-hexahydrochromeno[3,4-b]pyrrole], under setting [3], the pKi is greater than 6.30. Take `O=S(=O)(c1cncc(Br)c1)c1ccc2c(c1)OCC1NCCC21` (single isomer, unassigned) [Example 28, 7-[(5-bromopyridin-3-yl)sulfonyl]-1,2,3,3a,4,9b-hexahydrochromeno[3,4-b]pyrrole]: the Ki under setting [1] was less than 500 nM. On the same count and under the same terms, the same measure for `O=S(=O)(c1cncc(F)c1)c1ccc2c(c1)OCC1NCCC21` (single isomer, unassigned) [Example 29, 7-[(5-fluoropyridin-3-yl)sulfonyl]-1,2,3,3a,4,9b-hexahydrochromeno[3,4-b]pyrrole]: less than 500 nM. On the same count and under the same terms, then `O=S(=O)(c1cncc(Cl)c1)c1ccc2c(c1)OCC1NCCC21` (single isomer, unassigned) [Example 30, 7-[(5-chloropyridin-3-yl)sulfonyl]-1,2,3,3a,4,9b-hexahydrochromeno[3,4-b]pyrrole], with less than 500 nM.

As to `O=S(=O)(c1cncc(Br)c1)c1ccc2c(c1)OCC1NCCC21` (single isomer, unassigned) [Example 31, 7-[(5-bromopyridin-3-yl)sulfonyl]-1,2,3,3a,4,9b-hexahydrochromeno[3,4-b]pyrrole], the pKi under setting [2] is greater than 6.30. In the case of `O=S(=O)(c1cncc(F)c1)c1ccc2c(c1)OCC1NCCC21` (single isomer, unassigned) [Example 32, 7-[(5-fluoropyridin-3-yl)sulfonyl]-1,2,3,3a,4,9b-hexahydrochromeno[3,4-b]pyrrole], the Ki under setting [1] was greater than 1000 nM. Same read-out and setting: the same measure for `COc1cncc(S(=O)(=O)c2ccc3c(c2)OCC2NCCC32)c1` (single isomer, unassigned) [Example 33, 7-[(5-methoxypyridin-3-yl)sulfonyl]-1,2,3,3a,4,9b-hexahydrochromeno[3,4-b]pyrrole]: less than 500 nM.

On to `O=S(=O)(c1cncc(Cl)c1)c1ccc2c(c1)OCC1NCCC21` (single isomer, unassigned) [Example 34, 7-[(5-chloropyridin-3-yl)sulfonyl]-1,2,3,3a,4,9b-hexahydrochromeno[3,4-b]pyrrole], for which, under setting [2], the pKi is greater than 6.30.

As to `COc1cncc(S(=O)(=O)c2ccc3c(c2)OCC2NCCC32)c1` (single isomer, unassigned) [Example 35, 7-[(5-methoxypyridin-3-yl)sulfonyl]-1,2,3,3a,4,9b-hexahydrochromeno[3,4-b]pyrrole], the Ki under setting [1] was greater than 1000 nM. For the compound `COc1cc(F)cc(S(=O)(=O)c2ccc3c(c2)OCC2NCCC32)c1` (single isomer, unassigned) [Example 36, 7-[(3-fluoro-5-methoxyphenyl)sulfonyl]-1,2,3,3a,4,9b-hexahydrochromeno[3,4-b]pyrrole], the pKi under setting [3] was greater than 6.30. The same measure, in the same setting: then `O=S(=O)(c1ccc2c(c1)OCC1NCCC21)c1cccc2c1CCO2` (single isomer, unassigned) [Example 37, 7-(2,3-dihydro-1-benzofuran-4-ylsulfonyl)-1,2,3,3a,4,9b-hexahydrochromeno[3,4-b]pyrrole], with greater than 6.30; and `CN(C)C(=O)c1cccc(S(=O)(=O)c2ccc3c(c2)OC[C@H]2NCC[C@@H]32)c1` (single isomer, unassigned) [Example 38], with greater than 6.30.

As for `CC(C)COc1cc(F)cc(S(=O)(=O)c2ccc3c(c2)OCC2NCCC32)c1` (single isomer, unassigned) [Example 39, 7-{[3-fluoro-5-(2-methylpropoxy)phenyl]sulfonyl}-1,2,3,3a,4,9b-hexahydrochromeno[3,4-b]pyrrole], under setting [3], the pKi is greater than 6.30. On to `CCOc1cc(F)cc(S(=O)(=O)c2ccc3c(c2)OCC2NCCC32)c1` (single isomer, unassigned) [Example 40, 7-[(3-ethoxy-5-fluorophenyl)sulfonyl]-1,2,3,3a,4,9b-hexahydrochromeno[3,4-b]pyrrole], for which the pKi under setting [3] is greater than 6.30. On the same count and under the same terms, the same measure for `O=S(=O)(c1ccc2c(c1)OCC1NCCC21)c1cccc(F)c1F` (single isomer, unassigned) [Example 41, 7-[(2,3-difluorophenyl)sulfonyl]-1,2,3,3a,4,9b-hexahydrochromeno[3,4-b]pyrrole]: greater than 6.30. Regarding `O=S(=O)(c1ccc2c(c1)OCC1NCCC21)c1cc(F)cc(F)c1F` (single isomer, unassigned) [Example 42, 7-[(2,3,5-trifluorophenyl)sulfonyl]-1,2,3,3a,4,9b-hexahydrochromeno[3,4-b]pyrrole], the pKi under setting [3] was greater than 6.30. Same read-out and setting: the same measure for `CC(C)Oc1cc(F)cc(S(=O)(=O)c2ccc3c(c2)OCC2NCCC32)c1` (single isomer, unassigned) [Example 43, 7-{[3-fluoro-5-(propan-2-yloxy)phenyl]sulfonyl}-1,2,3,3a,4,9b-hexahydrochromeno[3,4-b]pyrrole]: greater than 6.30; for `COc1cc(F)cc(S(=O)(=O)c2ccc3c(c2)OCC2NCCC32)c1` (single isomer, unassigned) [Example 44, 7-[(3-fluoro-5-methoxyphenyl)sulfonyl]-1,2,3,3a,4,9b-hexahydrochromeno[3,4-b]pyrrole]: greater than 6.30; for `O=S(=O)(c1ccc2c(c1)OCC1NCCC21)c1cccc2c1CCO2` (single isomer, unassigned) [Example 45, 7-(2,3-dihydro-1-benzofuran-4-ylsulfonyl)-1,2,3,3a,4,9b-hexahydrochromeno[3,4-b]pyrrole]: greater than 6.30. Still for that read-out and setting: then `CN(C)C(=O)c1cccc(S(=O)(=O)c2ccc3c(c2)OC[C@@H]2NCC[C@H]32)c1` (single isomer, unassigned) [Example 46], with greater than 6.30. Still for that read-out and setting: the same measure for `CC(C)COc1cc(F)cc(S(=O)(=O)c2ccc3c(c2)OCC2NCCC32)c1` (single isomer, unassigned) [Example 47, 7-{[3-fluoro-5-(2-methylpropoxy)phenyl]sulfonyl}-1,2,3,3a,4,9b-hexahydrochromeno[3,4-b]pyrrole]: greater than 6.30. For `CCOc1cc(F)cc(S(=O)(=O)c2ccc3c(c2)OCC2NCCC32)c1` (single isomer, unassigned) [Example 48, 7-[(3-ethoxy-5-fluorophenyl)sulfonyl]-1,2,3,3a,4,9b-hexahydrochromeno[3,4-b]pyrrole], the pKi under setting [3] is greater than 6.30. Same read-out and setting: then `O=S(=O)(c1ccc2c(c1)OCC1NCCC21)c1cccc(F)c1F` (single isomer, unassigned) [Example 49, 7-[(2,3-difluorophenyl)sulfonyl]-1,2,3,3a,4,9b-hexahydrochromeno[3,4-b]pyrrole], with greater than 6.30; and `O=S(=O)(c1ccc2c(c1)OCC1NCCC21)c1cc(F)cc(F)c1F` (single isomer, unassigned) [Example 50, 7-[(2,3,5-trifluorophenyl)sulfonyl]-1,2,3,3a,4,9b-hexahydrochromeno[3,4-b]pyrrole], with greater than 6.30. Still for that read-out and setting: the same measure for `O=S(=O)(c1cncc(C(F)(F)F)c1)c1ccc2c(c1)OCC1NCCC21` (single isomer, unassigned) [Example 51, 7-{[5-(trifluoromethyl)pyridin-3-yl]sulfonyl}-1,2,3,3a,4,9b-hexahydrochromeno[3,4-b]pyrrole]: greater than 6.30.
